Data set [1] deals with 6 Hz 32 mA Epilepsy Model (electrically induced psychomotor seizure). Description: Minimal clonic seizure (6 Hz, 32 mA) test. The conditions noted are these: for animals protected/animals tested: 6 Hz 32 mA, Mouse, IP; for ED50: Mus musculus, ip, 6 Hz 32 mA dose response (Test 7-2), mice. Format: in vivo, Mouse. The source says:
(§1) 1. Minimal Clonic Seizure (6 Hz, 32 mA or 44 mA) Test
(§2) Test compounds are pre-administered to mice via i.p. injection. At varying times, individual mice (four per time point) are challenged with sufficient current delivered through corneal electrodes to elicit a psychomotor seizure in 97% of animals (32 mA or 44 mA for 3 s) (Toman J E P, Everett G M, Richards R K: The Search for New Drugs against Epilepsy. Texas Reports on Biology and Medicine 1952; 10:96-104). Untreated mice will display seizures characterized by a minimal clonic phase followed by stereotyped, automatistic behaviors described originally as being similar to the aura of human patients with partial seizures. Animals not displaying this behavior are considered protected. The test compounds are evaluated quantitatively by measuring the responses at varying doses at a determined time of peak effect (TPE).

Data set [2] deals with Corneal Kindled Mouse (Stage 5 seizures). Description: Corneal kindled mouse (focal seizures) - Test 26. The format is in vivo. Conditions: IP, TPE 0.5 hrs. The source says: 2. Corneal Kindling (Focal Seizures)
Mice are kindled electrically with 3 sec stimulation, 8 mA, 60 Hz, and corneal electrodes to a criterion of 10 consecutive Stage 5 seizures (facial clonus and head nodding progressing to forelimb clonus, and finally rearing and falling accompanied by a generalized clonic seizure as described by Racine (Racine R J: Modification of Seizure Activity by Electrical Stimulation. II. Motor Seizure. Electroen Clin Neuro 1972; 32:281-94). Stage 5 is generally reached after twice daily stimulation for 8 days. With continued stimulation once a day, animals usually progress to a reproducible Stage 5 after 10-14 additional days. At least 72 hours after the mice have been kindled, the test substance is administered either intraperitoneal (i.p.) or per os (p.o.) and, at the previously determined TPE, each animal is given the electrical stimulus indicated above. Following stimulation, the animals are observed for the presence or absence of the rearing and falling criteria of a Stage 5 seizure. Treated animals not displaying a Stage 3, 4, or 5 seizure are considered protected. The dose of the test substance is varied between the limits of 0 and 100% efficacy, and the ED50 and 95% confidence intervals calculated by probit analysis. Mean values and the S.E.M. are calculated for the length of clonus and seizure duration and p values are determined by the Student's t-test.

Data set [3] concerns MES Model (maximal electroshock seizure). Put plainly: Maximal electroshock seizure (MES) test. The format is in vivo. Conditions: Mouse, IP. As for the experimental part:
3. Maximal Electroshock Seizure (MES) Test
MES test is performed as in the Minimal Clonic Seizure (6 Hz) test, but the MES test utilizes a current of 50 mA (mice) or 150 mA (rats), frequency of 50-60 Hz, and a stimulation time of 0.2 seconds. Upon stimulation, untreated test subjects display immediate severe tonic seizure (including maximal extension of legs) and the body becomes stiffened for roughly 10-15 seconds. Next, clonic seizures start (including shaking of body and paddling movements of the hind limbs) and may last 20-30 seconds (Castel-Branco M M, Alves G L, Figueiredo I V, Falcao A C, Caramona M M: The Maximal Electroshock Seizure (MES) Model in the Preclinical Assessment of Potential New Antiepileptic Drugs. Methods and Findings in Experimental and Clinical Pharmacology 2009; 31:101-06). Test subjects that display reduced or eliminated symptoms of MES-type seizures during and/or after stimulation are considered protected.

Data set [4] deals with minimal muscular or neurological impairment (rotorod). Description: Acute toxicity - minimal motor impairment (rotorod). Format: in vivo. Conditions: for Toxicity Ratio: Mouse. The source says:
4. Acute Toxicity-Minimal Motor Impairment
To assess a compound's undesirable side effects (toxicity), animals are monitored for overt signs of impaired neurological or muscular function. In mice, the rotorod (Dunham N W, Miya T S: A Note on a Simple Apparatus for Detecting Neurological Deficit in Rats and Mice. Journal of the American Pharmaceutical Association 1957; 46:208-09), procedure is used to disclose minimal muscular or neurological impairment. When a mouse is placed on a rod that rotates at a speed of 6 rpm, the animal can maintain its equilibrium for long periods of time. The animal is considered toxic if it falls off this rotating rod three times during a 1-min period. In rats, minimal motor deficit is indicated by ataxia, which is manifested by an abnormal, uncoordinated gait. Rats used for evaluating toxicity are examined before the test drug is administered, since individual animals may have peculiarities in gait, equilibrium, placing response, etc., which might be attributed erroneously to the test substance.

Data set [5] concerns 6 Hz 32 mA Epilepsy Model (electrically induced psychomotor seizure). Put plainly: Minimal clonic seizure (6 Hz, 32 mA) test. Format: in vivo. The conditions noted are these: Mouse, Oral, 100 mg/kg, TPE N/A.
Data set [6] relates to 6 Hz 44 mA Epilepsy Model (electrically induced psychomotor seizure). Description: Minimal clonic seizure (6 Hz, 44 mA) test. The format is in vivo. The conditions noted are these: Mouse, IP, 100 mg/kg.
From the text: as §1, §2

Setting [7] is: MES screen table, IP, 100 mg/kg, TPT N/A.
Setting [8] is: Test 7-1 table, IP, 100 mg/kg, TPT N/A.
[9] abbreviates: Test 7-1 table, IP, 30 mg/kg, TPT NA.
[10] abbreviates: Test 7-1 table, IP, 300 mg/kg, TPT 0.5 hrs.
[11] abbreviates: Test 7-3 table, IP, 100 mg/kg, TPT N/A.

The text below walks through data of patent publication US9630896B2, “2,5-dialkyl-4-H/halo/ether-phenol compounds” (Tansna Therapeutics Inc, priority 2013, dated 2017).

`Cc1cc(Br)c(C(C)C)cc1O` [Ex. 9, 4-bromo-5-isopropyl-2-methyl phenol]: the animals protected/animals tested in data set [1] (100 mg/kg, TPE 0.5 hrs) is on record as 3/4; in data set [3] (100 mg/kg, TPE 0.25 hrs) it was 1/4; in data set [5] it was 0/4. The same compound displayed an ED50 in data set [1] (TPE 0.5 hrs) of 19 mg/kg. The “Average Seizure Score” value in data set [2] (19 mg/kg) worked out at 3.75. Further, the “Seizure Ratio” value in data set [2] (19 mg/kg) is on record as 1/4. Besides, the “Toxicity Ratio” value in data set [4] (setting [7]) is recorded as 0/8; in data set [4] (setting [8]), 0/4; in data set [4] (Test 7-1 table, Oral, 100 mg/kg, TPT N/A), 0/4. In addition, in data set [4] (mouse, in vivo, intraperitoneal, Test 7-2 table, TPT 6 hrs), the TD50 at 6 hrs is 398 mg/kg.
On to `Cc1cc(Br)c(C(C)(C)C)cc1O` [Ex. 25, 4-Bromo-5-tert-butyl-2-methyl-phenol], for which the animals protected/animals tested in data set [1] (30 mg/kg, TPE 0.5 hrs) was 2/4; in data set [1] (100 mg/kg, TPE 0.5 hrs), 2/4; in data set [1] (300 mg/kg, TPE 2 hrs) it was 4/4. Moreover, the entries for the “Toxicity Ratio” value in data set [4] (setting [9]), in data set [4] (setting [8]) and in data set [4] (setting [10]) were 0/8, 0/8 and 4/8, respectively.
For the compound `CCc1cc(Br)c(C(C)C)cc1O` [Ex. 64, 4-Bromo-2-ethyl-5-isopropyl-phenol], the animals protected/animals tested is listed as 1/4 in data set [1] (30 mg/kg, TPE 0.5 hrs); 3/4 in data set [1] (100 mg/kg, TPE 0.5 hrs); 4/4 in data set [1] (300 mg/kg, TPE 0.5 hrs); 1/4 in data set [6] (TPE 0.25 hrs); 0/4 in data set [3] (30 mg/kg, TPE NA); 1/4 in data set [3] (100 mg/kg, TPE 0.5 hrs). Also, the animals protected/animals tested in data set [3] (300 mg/kg, TPE 0.5 hrs) is recorded as 2/4. Besides, the “Toxicity Ratio” value was 0/8 in data set [4] (MES screen table, IP, 30 mg/kg, TPT NA); 0/8 in data set [4] (setting [7]); 6/8 in data set [4] (MES screen table, IP, 300 mg/kg, TPT 0.5 hrs); 0/8 in data set [4] (setting [9]); 0/8 in data set [4] (setting [8]); 6/8 in data set [4] (setting [10]). In addition, in data set [4] (setting [11]), the “Toxicity Ratio” value is listed as 0/4.
`CCCc1ccc(C(C)C)cc1O` [Ex. 95, 5-Isopropyl-2-propyl-phenol]: the animals protected/animals tested is reported as 3/4 in data set [1] (10 mg/kg, TPE 0.5 hrs); 0/4 in data set [1] (30 mg/kg, TPE 0.5 hrs); 3/4 in data set [1] (300 mg/kg, TPE 0.5 hrs); 0/4 in data set [3] (30 mg/kg, TPE 0.5 hrs); 0/4 in data set [3] (100 mg/kg, TPE 0.5 hrs); 1/4 in data set [3] (300 mg/kg, TPE 0.5 hrs). The “Toxicity Ratio” value is 1/8 in data set [4] (Test 7-1 table, IP, 10 mg/kg, TPT 0.5 hrs); 0/8 in data set [4] (Test 7-1 table, IP, 30 mg/kg, TPT 0.5 hrs); 3/8 in data set [4] (setting [10]).
`Cc1cc(O)c(C(C)C)cc1Br` [Ex. 132, 4-Bromo-2-isopropyl-5-methyl-phenol]: the animals protected/animals tested was 3/4 in data set [1] (100 mg/kg, TPE 0.5 hrs); 2/4 in data set [6] (TPE 2 hrs); 2/4 in data set [3] (100 mg/kg, TPE 1 hrs). Moreover, the ED50 in data set [1] (TPE 0.5 hrs) stood at 28 mg/kg. For the same compound, in data set [2] (28 mg/kg), the “Average Seizure Score” value amounted to 4.5. The “Seizure Ratio” value in data set [2] (28 mg/kg) is given as 1/4. In addition, the “Toxicity Ratio” value in data set [4] (MES screen table, IP, 100 mg/kg, TPT 0.5 hrs) was 1/8; in data set [4] (setting [8]) it was 0/4; in data set [4] (setting [11]), 0/4. For the same compound, the TD50 at 4 hrs in data set [4] (mouse, in vivo, intraperitoneal, Test 7-2 table, TPT 4 hrs) was > 200 mg/kg.
In the case of `CC(C)c1cc(O)c(C(C)(C)C)cc1Br` [Ex. 204, 4-Bromo-2-tert-butyl-5-isopropyl-phenol], the animals protected/animals tested in data set [1] (100 mg/kg, TPE 0.5 hrs) is recorded as 2/4; in data set [3] (100 mg/kg, TPE 0.25 hrs) it was 1/4. Moreover, the “Toxicity Ratio” value in data set [4] (setting [7]) is on record as 0/8; in data set [4] (setting [8]), 0/4.

As a reminder, the ED50 is the dose at which the effect has come halfway, by size or by number of responders. Low readings indicate an effect at a small dose, high ones a need for a large dose. As a reminder, the TD50 is the 50% point of the dose-response relation for the toxic effect studied. Low values mean harm at a small dose, high ones harm only at a large dose.
